This test in a line: Blood glucose, HDL-C and triglycerides in rhesus monkeys after an oral dose of GNTI. The class given is in vivo, rhesus monkey. On the procedure:
A cohort of rhesus monkeys having progressively increasing degrees of impaired glucose tolerance were monitored following an oral dose of GNTI of 86 ng/kg of body weight. Baseline readings of blood glucose (BC), high density lipoprotein C (HDL-C) and triglycerides (TO) were taken on Day 0.
The effect of GNTI was most readily seen in the change of blood glucose and blood lipid levels. […] The other 4 subjects of the cohort, i.e., r98060, r96027, r00072, r01078, had baseline blood glucose levels ranging from 71-81 and were considered to have impaired glucose tolerance.

Setting [1] is: four dyslipidemic rhesus monkeys, day 8, oral GNTI 86 ng/kg.
The mark [2] stands for this setting: rhesus monkeys, individual animals, Day 8 after oral GNTI 86 ng/kg on Day 0.

Where “and” joins values, the source holds several entries; their conditions need not be identical. Identical values can stand only once.

Turning to `NC(N)=Nc1ccc2[nH]c3c(c2c1)C[C@@]1(O)[C@H]2Cc4ccc(O)c5c4[C@@]1(CCN2CC1CC1)[C@H]3O5` [GNTI, guanidinylated naltrindole], the “Decrease in blood glucose, average” value (4 rhesus monkeys having impaired glucose tolerance, day 8, oral GNTI 86 ng/kg) stood at 26%. Moreover, under setting [1], the “HDL-C increase, average” value turned out to be 23% and the “HDL-C increase, range” value is recorded as 10-31%. Further, the “Decrease in blood glucose levels” value (glucose normal rhesus monkey r89163, day 8, oral GNTI 86 ng/kg) turned out to be 3%. Further, the “Increase in HDL-C lipid levels” value (lipid normal rhesus monkey r98068, day 8, oral GNTI 86 ng/kg) came to 5%. Under setting [2], the BG was 51 mg/dL and 53 mg/dL and 67 mg/dL and 56 mg/dL and 63 mg/dL; the HDL-C was 85 mg/dL and 46 mg/dL and 61 mg/dL and 63 mg/dL and 84 mg/dL; the TG was <45 mg/dL (3×) and 89 mg/dL and 60 mg/dL. Further, the “BG Change” value (rhesus monkeys, individual animals, Day 8 vs Baseline, oral GNTI 86 ng/kg) is listed as “(−3%)”.
